This note sets out measurements from patent publication US12448383B2, “Compounds and methods for treatment of viral infections” (priority 2022, dated 2025).

Series [1] has as its system SARS Coronavirus 2 recombinant with NanoLuc (SARS-CoV2-NLuc) in A549-hACE2 cells. Put plainly: microbe, parasite or virus in culture. The conditions noted are these: A549; read-out: EC50 SARS CoV2 NanoLuc A549 384. The class given is cell-based.
Series [2] can be described thus: GI S9 stability - no PMSF. The class given is in vitro ADME. Details: GIS9-HUMAN-NoPMSF T1/2: unit: min. The conditions noted are these: human intestinal S9, PMSF-free; for half-life at 2 µM: pH 7.4, read-out: GIS9-HUMAN-NoPMSF T1/2. A digest of the protocol: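 Stability was assessed by Q-Exactive LC-MS peak area ratios against internal standard, tracking loss of parent and appearance of nucleoside metabolite Reference Compound A. Incubations used 2 μM compound in 1 mg/mL intestinal S9 without PMSF (PBS, pH 7.4), with six samples taken over 120 min.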

Series [3] relates to Respiratory syncytial virus recombinant with luciferase (RSV-Luc5) in Normal Human Bronchial Epithelial (NHBE) cells. The experiment in a line: microbe, parasite or virus in culture. The conditions noted are these: read-out: EC50 RSVFluc-NHBE 384 V2. The class given is cell-based.
Series [4] in a line: CC50 MT4 cytotoxicity (Cell-Titer Glo). The conditions noted are these: human. The series is classed as cell-based. In short, it runs like this: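 CC50 values are the concentrations cutting viability by 50%, fitted by non-linear regression against untreated (100%) and 2 μM puromycin (0%) controls. Cell-Titer Glo luminescence measured after 4-5 days at 37° C exposure of uninfected MT-4 and HEp-2 cells to 3-fold dilutions spanning 15 nM to 100,000 nM.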

A further series is described as follows: Plasma stability. The series is classed as in vitro ADME. The conditions noted are these: 37° C., 2 μM substrate. Details: unit not given here. A digest of the protocol:
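LC-MS (Q-Exactive, 5 ppm tolerance, 0.1% formic acid water/acetonitrile gradient) quantified compound in quenched aliquots. Aliquots were taken at 0.05, 0.5, 1, 2, 3 and 4 hr and quenched with internal-standard solution, and supernatants were diluted with water after centrifugation.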

The test system of series [5] is Caco-2 cells (clone C2BBe1). Put plainly: CACO-2 permeability. The series is classed as in vitro ADME. Details: unit not given here. Conditions: for DM Caco2 A to B: apical to basolateral, donor pH 6.5, receiver pH 7.4; for DM Caco2 B to A: basolateral to apical. A digest of the protocol: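 A-to-B and B-to-A flux measured by LC-MS/MS from receiver samples taken at 1 and 2 h, with donor sampled at 0 and 2 h and recovery checked. Buffers: pH 6.5 HBSS with 200 μM BNPP on the donor side, pH 7.4 with BSA on the receiver side. Monolayers were 21-day cultures, TEER-verified, in duplicate wells.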
(In general: Caco-2 monolayers are a common model of the intestinal barrier.)

As for `CCCCCCCCCCCCCCCCCCOC(=O)OC[C@H]1O[C@@](C#N)(c2ccc3c(N)ncnn23)[C@H](O)[C@@H]1O` [Compound 126, ((2R,3S,4R,5R)-5-(4-aminopyrrolo[2,1-f][1,2,4]triazin-7-yl)-5-cyano-3,4-dihydroxytetrahydrofuran-2-yl)methyl octadecyl carbonate], in series [1], the EC50 is 1.61 µM. In series [2], the half-life at 2 µM was determined as 1.63 h. In addition, in series [3], the EC50 was determined as 0.517 µM. In addition, the cytotoxic concentration (CC50) in series [4] came out at 27.7 µM. Also, the “STA Human Plasma 37” value in “Plasma stability” came out at 79.1. The compound also yielded a logD in the series “physchem” of over 5.7. For the same compound, in series [5], the “DM Caco2 A to B” value turned out to be 0.01 and the “DM Caco2 B to A” value is reported as 0.03.
`N#C[C@@]1(c2ccc3c(N)ncnn23)O[C@H](COC(=O)OCCCCCCC(=O)O)[C@@H](O)[C@H]1O` [Compound 143, 7-(((((2R,3S,4R,5R)-5-(4-aminopyrrolo[2,1-f][1,2,4]triazin-7-yl)-5-cyano-3,4-dihydroxytetrahydrofuran-2-yl)methoxy)carbonyl)oxy)heptanoic acid]: the EC50 was 35.4 µM in series [1] and over 50 µM in series [3]. The “GIS9-HUMAN-NoPMSF T1/2” value in series [2] turned out to be 789. Moreover, the CC50 in series [4] was over 50 µM. Moreover, in the series “Plasma stability”, the “STA Human Plasma 37” value is given as 800.58. In “physchem”, this compound showed a logD of under 0.3.
Turning to `N#C[C@@]1(c2ccc3c(N)ncnn23)O[C@H](COC(=O)OCCCCCC(=O)O)[C@@H](O)[C@H]1O` [Compound 140, 6-(((((2R,3S,4R,5R)-5-(4-aminopyrrolo[2,1-f][1,2,4]triazin-7-yl)-5-cyano-3,4-dihydroxytetrahydrofuran-2-yl)methoxy)carbonyl)oxy)hexanoic acid], the EC50 in series [1] is over 50 µM. In series [2], the half-life at 2 µM worked out at 13.1 h. The 50% effective concentration (EC50) in series [3] was over 50 µM. The compound further registered a CC50 in series [4] of over 50 µM. Also, the “STA Human Plasma 37” value in “Plasma stability” is on record as 1322.1. In “physchem”, the logD is under 0.3. In addition, in series [5], the “DM Caco2 A to B” value was found to be 0.04 and the “DM Caco2 B to A” value is listed as 0.12.
`N#C[C@@]1(c2ccc3c(N)ncnn23)O[C@H](COC(=O)OCCCC(=O)O)[C@@H](O)[C@H]1O` [Compound 141, 4-(((((2R,3S,4R,5R)-5-(4-aminopyrrolo[2,1-f][1,2,4]triazin-7-yl)-5-cyano-3,4-dihydroxytetrahydrofuran-2-yl)methoxy)carbonyl)oxy)butanoic acid]: the EC50 in series [1] and in series [3] was over 50 µM throughout. Moreover, in series [2], the “GIS9-HUMAN-NoPMSF T1/2” value was 789. For the same compound, the CC50 in series [4] was over 50 µM. The “STA Human Plasma 37” value in “Plasma stability” is given as 902.37. In “physchem”, this compound showed a logD of under 0.3. The “DM Caco2 A to B” value in series [5] was 0.05. Also, the “DM Caco2 B to A” value in series [5] came to 0.08.
As for `C[C@@H](OC(=O)OC[C@H]1O[C@@](C#N)(c2ccc3c(N)ncnn23)[C@H](O)[C@@H]1O)[C@@H](C(=O)OC1CCCC1)N(C)C` [Compound 149, cyclopentyl O-((((2R,3S,4R,5R)-5-(4-aminopyrrolo[2,1-f][1,2,4]triazin-7-yl)-5-cyano-3,4-dihydroxytetrahydrofuran-2-yl)methoxy)carbonyl)-N,N-dimethyl-L-threoninate], the EC50 in series [1] came to 2.42 µM; in series [3] it was 2.55 µM. For the same compound, the CC50 in series [4] was over 50 µM. The same compound registered a logD in the series “physchem” of 2.2.
The like results for `CN(C)[C@@H](COC(=O)OC[C@H]1O[C@@](C#N)(c2ccc3c(N)ncnn23)[C@H](O)[C@@H]1O)C(=O)OC1CCCC1` [Compound 153, cyclopentyl O-((((2R,3S,4R,5R)-5-(4-aminopyrrolo[2,1-f][1,2,4]triazin-7-yl)-5-cyano-3,4-dihydroxytetrahydrofuran-2-yl)methoxy)carbonyl)-N,N-dimethyl-L-serinate] were, in that order, 2.67 µM, 3.24 µM, over 50 µM and 1.7.
The like results for `C[C@@H](OC(=O)OC[C@H]1O[C@@](C#N)(c2ccc3c(N)ncnn23)[C@H](O)[C@@H]1O)[C@@H](C(=O)OCC(C)(C)C)N(C)C` [Compound 147, neopentyl O-((((2R,3S,4R,5R)-5-(4-aminopyrrolo[2,1-f][1,2,4]triazin-7-yl)-5-cyano-3,4-dihydroxytetrahydrofuran-2-yl)methoxy)carbonyl)-N,N-dimethyl-L-threoninate] were, in that order, 2.85 µM, 2.47 µM, over 50 µM and 2.5.
For `C[C@@H](OC(=O)OC[C@H]1O[C@@](C#N)(c2ccc3c(N)ncnn23)[C@H](O)[C@@H]1O)[C@@H](C(=O)OC1CCOCC1)N(C)C` [Compound 150, tetrahydro-2H-pyran-4-yl O-((((2R,3S,4R,5R)-5-(4-aminopyrrolo[2,1-f][1,2,4]triazin-7-yl)-5-cyano-3,4-dihydroxytetrahydrofuran-2-yl)methoxy)carbonyl)-N,N-dimethyl-L-threoninate] the same measures were 2.37 µM, 3.08 µM, over 50 µM and 1.3.
Consider `N#C[C@@]1(c2ccc3c(N)ncnn23)O[C@H](COC(=O)OCCCCC(=O)O)[C@@H](O)[C@H]1O` [Compound 142, 5-(((((2R,3S,4R,5R)-5-(4-aminopyrrolo[2,1-f][1,2,4]triazin-7-yl)-5-cyano-3,4-dihydroxytetrahydrofuran-2-yl)methoxy)carbonyl)oxy)pentanoic acid], for which the half-maximal effective concentration (EC50) in series [1] was over 50 µM. Further, the “GIS9-HUMAN-NoPMSF T1/2” value in series [2] is 789. For the same compound, in series [3], the EC50 is over 50 µM. For the same compound, the CC50 in series [4] was over 50 µM. For the same compound, the “STA Human Plasma 37” value in “Plasma stability” is on record as 1584. This compound yielded a pH-dependent lipophilicity (logD) in the series “physchem” of under 0.3. Besides, in series [5], the “DM Caco2 A to B” value was 0.02 and the “DM Caco2 B to A” value came out at 0.07.
For the compound `CC(C)OC(=O)[C@H](CCOC(=O)OC[C@H]1O[C@@](C#N)(c2ccc3c(N)ncnn23)[C@H](O)[C@@H]1O)N(C)C` [Compound 146, isopropyl (2S)-4-[[(2R,3S,4R,5R)-5-(4-aminopyrrolo[2,1-f][1,2,4]triazin-7-yl)-5-cyano-3,4-dihydroxy-tetrahydrofuran-2-yl]methoxycarbonyloxy]-2-(dimethylamino)butanoate], the EC50 in series [1] came to 7.68 µM. Also, in series [2], the half-life at 2 µM is 2.9 h. Moreover, the 50% effective concentration (EC50) in series [3] stood at 8.25 µM. The same compound gave a CC50 in series [4] of over 50 µM. For the same compound, in “Plasma stability”, the “STA Human Plasma 37” value stood at 497.93. In addition, in “physchem”, the log distribution coefficient (logD) stood at 1.5. In addition, in series [5], the “DM Caco2 A to B” value is 0.06 and the “DM Caco2 B to A” value stood at 7.15.
For the compound `N#C[C@@]1(c2ccc3c(N)ncnn23)O[C@H](COC(=O)OC23CC(C(F)(F)F)(C2)C3)[C@@H](O)[C@H]1O` [Compound 139, [(2R,3S,4R,5R)-5-(4-aminopyrrolo[2,1-f][1,2,4]triazin-7-yl)-5-cyano-3,4-dihydroxy-tetrahydrofuran-2-yl]methyl [3-(trifluoromethyl)-1-bicyclo[1.1.1]pentanyl]carbonate], the half-life at 2 µM in series [2] worked out at 0.0228 h. Besides, in series [3], the EC50 was determined as 1.64 µM. The same compound showed a CC50 in series [4] of over 50 µM. Moreover, the “STA Human Plasma 37” value in the series “Plasma stability” worked out at 150.07. Also, in the series “physchem”, the logD was found to be 2.2. For the same compound, in series [5], the “DM Caco2 A to B” value was determined as 0.99 and the “DM Caco2 B to A” value is recorded as 12.98.
`C[C@@H](OC(=O)OC[C@H]1O[C@@](C#N)(c2ccc3c(N)ncnn23)[C@H](O)[C@@H]1O)[C@@H](C(=O)OCC1CCCC1)N(C)C` [Compound 148, (2S,3R)-cyclopentylmethyl 3-(((((2R,3S,4R,5R)-5-(4-aminopyrrolo[2,1-f][1,2,4]triazin-7-yl)-5-cyano-3,4-dihydroxytetrahydrofuran-2yl)methoxy)carbonyl)oxy)-2-(dimethylamino)butanoate]: the EC50 came out at 2.05 µM in series [1] and 2.1 µM in series [3]. Further, in series [4], the CC50 was over 50 µM. The compound also gave a logD in “physchem” of 2.7.
The like results for `CN(C)[C@@H](COC(=O)OC[C@H]1O[C@@](C#N)(c2ccc3c(N)ncnn23)[C@H](O)[C@@H]1O)C(=O)OCC1CCCC1` [Compound 152, cyclopentylmethyl O-((((2R,3S,4R,5R)-5-(4-aminopyrrolo[2,1-f][1,2,4]triazin-7-yl)-5-cyano-3,4-dihydroxytetrahydrofuran-2-yl)methoxy)carbonyl)-N,N-dimethyl-L-serinate] were, in that order, 1.28 µM, 3.63 µM, over 50 µM and 2.2.

As usually defined, the EC50 is the concentration that produces a half-maximal response. The term CC50 denotes the concentration that lowers cell viability or growth by half. Broadly, the logD is lipophilicity at a set pH, counting ionised and neutral species.
